PubChem BioAssay AID1259407 (Chemical Carcinogenesis Research Information System (CCRIS), 2018)
Calls of active or inactive are those of the source. The rule behind the calls is not given here.

Test system: CCRIS mutagenicity, Ames/micronucleus/aberration tests
Experiment: CCRIS mutagenicity studies
[1] = Test System: AMES SALMONELLA TYPHIMURIUM, Strain/Indicator: TA100, Metabolic Activation: NONE, Method: PREINCUBATION
[2] = Test System: Ames Salmonella typhimurium, Strain/Indicator: TA98, Metabolic Activation: None, Method: Preincubation
[3] = Test System: Ames Salmonella typhimurium, Strain/Indicator: TA100, Metabolic Activation: None, Method: Preincubation
[4] = Test System: Ames Salmonella typhimurium, Strain/Indicator: TA1535, Metabolic Activation: None, Method: Preincubation
[5] = Test System: AMES SALMONELLA TYPHIMURIUM, Strain/Indicator: TA98, Metabolic Activation: NONE, Method: PREINCUBATION
[6] = Test System: AMES SALMONELLA TYPHIMURIUM, Strain/Indicator: TA98, Metabolic Activation: RAT, LIVER, S-9, PHENOBARBITAL AND 5,6-BENZOFLAVONE, Method: PREINCUBATION
[7] = Test System: AMES SALMONELLA TYPHIMURIUM, Strain/Indicator: TA100, Metabolic Activation: RAT, LIVER, S-9, PHENOBARBITAL AND 5,6-BENZOFLAVONE, Method: PREINCUBATION
[8] = Test System: AMES SALMONELLA TYPHIMURIUM, Strain/Indicator: TA1535, Metabolic Activation: NONE, Method: PREINCUBATION
[9] = Test System: AMES SALMONELLA TYPHIMURIUM, Strain/Indicator: TA1535, Metabolic Activation: RAT, LIVER, S-9, PHENOBARBITAL AND 5,6-BENZOFLAVONE, Method: PREINCUBATION
[10] = Test System: AMES SALMONELLA TYPHIMURIUM, Strain/Indicator: TA1537, Metabolic Activation: NONE, Method: PREINCUBATION
[11] = Test System: AMES SALMONELLA TYPHIMURIUM, Strain/Indicator: TA1537, Metabolic Activation: RAT, LIVER, S-9, PHENOBARBITAL AND 5,6-BENZOFLAVONE, Method: PREINCUBATION
[12] = Test System: E. COLI, Strain/Indicator: WP2 UVRA, Metabolic Activation: NONE, Method: PREINCUBATION
[13] = Test System: E. COLI, Strain/Indicator: WP2 UVRA, Metabolic Activation: RAT, LIVER, S-9, PHENOBARBITAL AND 5,6-BENZOFLAVONE, Method: PREINCUBATION

With `OC1(c2ccc(Cl)cc2)c2ccccc2C2=NCCN21` (configuration not stated) the mutagenic call (Test System: CHINESE HAMSTER V-79, Strain/Indicator: V-79/6-THIOGUANINE, Metabolic Activation: NONE) was “active; positive” and the mutagenic call (Test System: CHINESE HAMSTER V-79, Strain/Indicator: V-79/6-THIOGUANINE, Metabolic Activation: S-9) was “active; positive”.

With `CC/C=C/C=O` the mutagenic call [1] was “inactive; negative”, the mutagenic call (Test System: AMES SALMONELLA TYPHIMURIUM, Strain/Indicator: TA100, Metabolic Activation: NONE, Method: PREINCUBATION (THREEFOLD CELL DENSITY)) was “active; positive” and the mutagenic call (Test System: AMES SALMONELLA TYPHIMURIUM, Strain/Indicator: TA100, Metabolic Activation: RAT, LIVER, S-9, AROCLOR 1254, Method: PREINCUBATION) was “active; positive”. The mutagenic call (Test System: AMES SALMONELLA TYPHIMURIUM, Strain/Indicator: TA100, Metabolic Activation: RAT, LIVER, S-9, AROCLOR 1254, Method: PREINCUBATION (THREEFOLD CELL DENSITY)) was “active; positive”, the mutagenic call (Test System: CHINESE HAMSTER V-79, Strain/Indicator: V-79/6-THIOGUANINE, Metabolic Activation: NONE, Method: STANDARD PLATE) was “active; positive” and the mutagenic call (Test System: CHINESE HAMSTER V-79, Strain/Indicator: V-79/OUABAIN, Metabolic Activation: NONE, Method: STANDARD PLATE) was “inactive; negative”.

For `O=C1NC(=O)c2ccccc21`, the mutagenic call [2] was “inactive; negative”, the mutagenic call (Test System: Ames Salmonella typhimurium, Strain/Indicator: TA98, Metabolic Activation: Rat, Liver, S-9, Phenobarbital and 5,6-benzoflavone, Method: Preincubation) was “inactive; negative” and the mutagenic call [3] was “inactive; negative”. The mutagenic call (Test System: Ames Salmonella typhimurium, Strain/Indicator: TA100, Metabolic Activation: Rat, Liver, S-9, Phenobarbital and 5,6-benzoflavone, Method: Preincubation) was “inactive; negative”, the mutagenic call [4] was “inactive; negative” and the mutagenic call (Test System: Ames Salmonella typhimurium, Strain/Indicator: TA1535, Metabolic Activation: Rat, Liver, S-9, Phenobarbital and 5,6-benzoflavone, Method: Preincubation) was “inactive; negative”. For the same compound, the mutagenic call (Test System: Ames Salmonella typhimurium, Strain/Indicator: TA1537, Metabolic Activation: None, Method: Preincubation) was “inactive; negative”, the mutagenic call (Test System: Ames Salmonella typhimurium, Strain/Indicator: TA1537, Metabolic Activation: Rat, Liver, S-9, Phenobarbital and 5,6-benzoflavone, Method: Preincubation) was “inactive; negative” and the mutagenic call (Test System: E. coli, Strain/Indicator: WP2uvrA/pKM101, Metabolic Activation: None, Method: Preincubation) was “inactive; negative”. For the same compound, the mutagenic call (Test System: E. coli, Strain/Indicator: WP2uvrA/pKM101, Metabolic Activation: Rat, Liver, S-9, Phenobarbital and 5,6-benzoflavone, Method: Preincubation) was “inactive; negative”.

`Cc1c(F)c(N2CCNC(C)C2)cc2c1c(=O)c(C(=O)O)cn2C1CC1` (configuration not stated) was tested, and the mutagenic call [5] was “inactive; negative”, the mutagenic call [6] was “inactive; negative” and the mutagenic call [1] was “inactive; negative”. The mutagenic call [7] was “inactive; negative”, the mutagenic call [8] was “inactive; negative” and the mutagenic call [9] was “inactive; negative”. The mutagenic call [10] was “inactive; negative”, the mutagenic call [11] was “inactive; negative” and the mutagenic call (Test System: CHINESE HAMSTER V-79, Strain/Indicator: V-79 (HGPRT)/6-THIOGUANINE, Metabolic Activation: NONE) was “inactive; negative”. For the same compound, the mutagenic call (Test System: CHINESE HAMSTER V-79, Strain/Indicator: V-79 (HGPRT)/6-THIOGUANINE, Metabolic Activation: RAT, LIVER, S-9, PHENOBARBITAL AND 5,6-BENZOFLAVONE) was “inactive; negative”, the mutagenic call [12] was “inactive; negative” and the mutagenic call [13] was “inactive; negative”.

With `CC(C)Br` the mutagenic call (End Point: In vitro micronucleus, Test System: Chinese Hamster Ovary (CHO-WBL) cells, Metabolic Activation: None) was “inactive; negative”, the mutagenic call [5] was “inactive; negative” and the mutagenic call (Test System: AMES SALMONELLA TYPHIMURIUM, Strain/Indicator: TA98, Metabolic Activation: RAT LIVER S-9, PHENOBARBITAL AND BETA-NAPHTHOFLAVONE, Method: PREINCUBATION) was “inactive; negative”. For the same compound, the mutagenic call [6] was “inactive; negative”, the mutagenic call [7] was “active; positive” and the mutagenic call [8] was “active; positive”. The mutagenic call (Test System: AMES SALMONELLA TYPHIMURIUM, Strain/Indicator: TA1535, Metabolic Activation: RAT LIVER S-9, PHENOBARBITAL AND BETA-NAPHTHOFLAVONE, Method: PREINCUBATION) was “active; positive”, the mutagenic call [9] was “active; positive” and the mutagenic call [10] was “inactive; negative”. The mutagenic call (Test System: AMES SALMONELLA TYPHIMURIUM, Strain/Indicator: TA1537, Metabolic Activation: RAT LIVER S-9, PHENOBARBITAL AND BETA-NAPHTHOFLAVONE, Method: PREINCUBATION) was “inactive; negative”, the mutagenic call [11] was “inactive; negative” and the mutagenic call [12] was “inactive; negative”. The mutagenic call [13] was “inactive; negative”.

For `O=P1(NCCCl)OCCCN1CCCl` (configuration not stated), the mutagenic call (Test System: AMES SALMONELLA TYPHIMURIUM, Strain/Indicator: TA100, Metabolic Activation: NADPH, Method: PREINCUBATION) was “active; positive”, the mutagenic call [1] was “active; positive” and the mutagenic call (Test System: AMES SALMONELLA TYPHIMURIUM, Strain/Indicator: TA100, Metabolic Activation: RAT, LIVER, HEPATOCYTES, PHENOBARBITAL, Method: PREINCUBATION) was “inactive; negative”. The mutagenic call (Test System: AMES SALMONELLA TYPHIMURIUM, Strain/Indicator: TA100, Metabolic Activation: RAT, LIVER, S-9, AROCLOR 1254, Method: STANDARD PLATE) was “active; positive”, the mutagenic call (Test System: AMES SALMONELLA TYPHIMURIUM, Strain/Indicator: TA100, Metabolic Activation: RAT, LIVER, S-9, PHENOBARBITAL, NADPH, Method: PREINCUBATION) was “active; positive” and the mutagenic call (Test System: AMES SALMONELLA TYPHIMURIUM, Strain/Indicator: TA100, Metabolic Activation: RAT, LIVER, S-9, PHENOBARBITAL, Method: PREINCUBATION) was “active; positive”. The mutagenic call (Test System: AMES SALMONELLA TYPHIMURIUM, Strain/Indicator: TA1535, Metabolic Activation: RAT, LIVER, HEPATOCYTES, PHENOBARBITAL, Method: PREINCUBATION) was “active; positive” and the mutagenic call (Test System: AMES SALMONELLA TYPHIMURIUM, Strain/Indicator: TA1535, Metabolic Activation: RAT, LIVER, S-9, AROCLOR 1254, Method: STANDARD PLATE) was “active; positive”.

In the case of `O=c1c2ccccc2c(=O)c2c1cc(Cl)c1[nH]c3c([nH]c12)c(Cl)cc1c(=O)c2ccccc2c(=O)c13`, the mutagenic call [2] is reported as “active; positive”, the mutagenic call [3] is reported as “inactive; negative” and the mutagenic call (Test System: Ames Salmonella typhimurium, Strain/Indicator: TA102, Metabolic Activation: None, Method: Preincubation) is reported as “inactive; negative”. The mutagenic call [4] was “inactive; negative”.

For `CCCCN(CC)c1c([N+](=O)[O-])cc(C(F)(F)F)cc1[N+](=O)[O-]`, the mutagenic call (End Point: In vitro Chromosomal aberration, Test System: CHO cells, Metabolic Activation: None) was “inactive; negative” and the mutagenic call (End Point: In vitro Chromosomal aberration, Test System: CHO cells, Metabolic Activation: Rodent, liver, S-9, Aroclor) was “inactive; negative”.
